From patent publication US7842678B2, “Compositions comprising oligosaccharides” (priority 2003, dated 2010)

What was measured:
[1] = tested on: VTEC NCTC 12900 adhesion to HT29 cells; assay: Adhesion assay of VTEC to HT29 cells, cultures subcultured on three successive days (Example 2); format: cell-based, E. coli; conditions: for Inhibition of adhesion of VTEC to HT29 cells (FIG. 1): 2.5 mg ml, plate counting, relative to oligosaccharide-free control; for Inhibition of adhesion of VTEC to HT29 cells (FIG. 2): VTEC subcultured on three successive days
Description: VTEC NCTC 12900 was inoculated from frozen stocks into Dulbecco's modified eagle medium (DMEM) with added non-essential amino acids (1% v/v) and foetal bovine serum (5% v/v). The culture was incubated anaerobically at 37° C. for 18 h. A 20 μl aliquot was transferred into 2 ml of fresh DMEM, and incubated under the same conditions for 24 h. This was repeated twice more, so that the organism was subcultured on three successive days. An adhesion assay was then carried out as described previously, using 2.5 mg ml methyl-α-D-mannopyrannoside and D-mannose, and the adhered bacteria were enumerated by using plate counting.
Alpha 1,2 mannobiose and alpha 1,6 mannobiose were assayed for anti-adhesive activity using the method described hereinabove, with the modification that the VTEC cultures were subcultured on three successive days as described above.
Further oligosaccharides (pectic oligosaccharides, isomalto-oligosaccharides, GOS, partially hydrolyzed guar gum, xylo oligosaccharides and lactulose) have been tested for anti-adhesive activity against E. coli, both VTEC and EPEC pathovars. Methods were as described previously but with three subcultures included in the culture preparation stage, as described above. Compounds tested included GOS and pectic oligosaccharides that had been further purified by ultrafiltration to remove nitrates.

[2] = tested on: VTEC adhesion to HT29 cells; assay: Adhesion assay of VTEC to HT29 cell monolayers (Example 1); format: cell-based, E. coli
Description: (§1) HT29 cells were grown to 95-100% confluence in 12-well tissue culture plates. Bacterial cultures were grown in tissue culture medium, anaerobically at 37° C. These incubation conditions promoted expression of adhesions by the bacteria. The bacteria (in buffer, with or without the test oligosaccharide) were added to the cell monolayers and incubated for 2 h at 37° C. aerobically under 5% CO2. After incubation, the cell layers were washed three times in buffer and the adherent bacteria quantified. Assays were performed in triplicate
(§2) The tested oligosaccharides were methyl-α-mannopyrannoside and CGMP.
(§3) After the adhesion and washing stages, the cells were suspended and vigorously mixed to break up clumps. The resulting suspension was then plated onto non-selective agar media appropriate for the test organism.
(§4) The Initial inoculum was 7.3 log cfu ml^−1 (VTEC) and 7.0 log cfu ml^−1 (EPEC).

[3] = tested on: EPEC adhesion to HT29 cells; assay: Adhesion assay of EPEC to HT29 cell monolayers (Example 1); format: cell-based, E. coli; conditions: oligosaccharide concentration 0.25%; initial inoculum 7.0 log cfu ml^−1; buffer only 5.3; 2 h at 37° C.
Description: as §1, §2, §3, §4

[4] = tested on: E. coli EPEC (O119:H4) adhesion to HT29 cells; assay: Adhesion assay of carbohydrates against E. coli EPEC on HT29 monolayers (Example 3); format: cell-based; conditions: carbohydrate solution 5 mg/ml in PBS mixed 1:1 with bacterial suspension; 2 hours at 37° C. aerobically; relative to carbohydrate-free control
Description: The saccharides were tested against one strain of E. coli VTEC (0157:1H7 strain NCTC 12900) and one strain of E. coli EPEC (O119:H4).
E. coli broth cultures for adhesion assays were grown in DMEM supplemented with 5% v/v FBS and 1% non-essential amino acid solution (SDMEM). For each strain, a broth was inoculated from a slope culture and incubated anaerobically at 37° C. for 18-24 h. The overnight culture was then inoculated (1% v/v) into fresh SDMEM and incubated for a further 18-24 h under the same conditions. This was repeated once more. On the day of the assay, a 10% v/v inoculum was placed into pre-warmed SDMEM and incubated for 4 h anaerobically at 37° C.
A culture of the test strain was prepared as described above, then diluted 1:500 in PBS. The viable count of the diluted suspension was determined by spread plating onto PCA, with decimal dilutions carried out in MRD as necessary. The carbohydrates to be tested were dissolved in PBS (5 mg/ml) and sterilised by passing through a 0.2 μm syringe filter. […] A 1 ml aliquot of PBS was then pipetted into each well, and pipette mixed until the monolayer was completely dislodged and clumps broken up (as determined visually). […]
Data processing: Viable counts were calculated for all wells and the inoculum, and expressed as colony forming units per ml (cfu/ml). For each test, the mean and standard error of the triplicate wells were calculated. […]

Molecule	Inhibition of adhesion of VTEC to HT29 cells (FIG. 1) [1]	Inhibition of adhesion of VTEC to HT29 cells (FIG. 2) [1]	other results
O=C[C@@H](O)[C@@H](O)[C@H](O)[C@H](O)CO [D-mannose]	good inhibition of adhesion		
OC[C@H]1O[C@H](O[C@@H]2C(O)O[C@H](CO)[C@@H](O)[C@@H]2O)[C@@H](O)[C@@H](O)[C@@H]1O (stereo partly drawn) [Alpha 1,2 mannobiose]		Inhibition of adhesion was detected	
CO[C@H]1O[C@H](CO)[C@@H](O)[C@H](O)[C@@H]1O [methyl-α-mannopyranoside, Methyl-α-D-mannopyranoside]	good inhibition of adhesion	Inhibition of adhesion	Reduction in adhesion (in words) ([2]; oligosaccharide 0.25%, pathovar not given): reduction in adhesion; Viable count of adhered VTEC ([2]; oligosaccharide concentration 0.25%, initial inoculum 7.3 log cfu ml^−1, buffer only 6.3, 2 h at 37° C.): 4.8 log cfu ml^−1; Viable count of adhered EPEC [3]: 5.1 log cfu ml^−1
OC[C@H]1O[C@H](OC[C@H]2O[C@H](O)[C@@H](O)[C@@H](O)[C@@H]2O)[C@@H](O)[C@@H](O)[C@@H]1O [alpha 1,6 mannobiose]		Inhibition of adhesion was detected	
β-1,3-glucan [curdlan]			Anti-adhesive activity against enteropathogenic E. coli EPEC (FIG. 5) [4]: positive
